Assay results from US9328137B2, “Hydrogel-forming material” (NISSAN CHEMICAL INDUSTRIES, LTD., priority 2011, dated 2016).
Residues, ends and D or L forms follow the SMILES beside them. *: point of attachment. Palmitoyl = CCCCCCCCCCCCCCCC(=O)*

Legend:
[1] = Evaluation of hydrogelation ability (overnight cooling at room temperature, inversion of the bottle); format: physicochemical; details: same additive amounts as; after stirring at 80° C. in an open system
Source text: Next, the solution was allowed to cool at room temperature overnight.

[2] = Evaluation of solubility of N-palmitoyl-Gly-His with each additive (heating and stirring at 80° C., open system, visual inspection); format: physicochemical; details: 0.05% or greater acetic acid, sodium acetate or phosphoric acid, 0.1% disodium hydrogen phosphate or trisodium citrate, 0.5% citric, succinic, tartaric, lactic acid or their sodium salts, 1.0% trimellitic acid or trisodium trimellitate
Description: Next, heating and stirring were performed, with a cap of the screw bottle being open (that is, an open system), in a water bath (NWB-180N, manufactured by Nissinrika K. K.) for 60 minutes at a maximum until a transparent dispersion state was confirmed at 80° C. […] Next, heating and stirring were performed, with a cap of the screw bottle being open, in a water bath (NWB-180N, manufactured by Nissinrika K. K.) for 60 minutes at 80° C.
Next, heating and stirring were performed, with a cap of the screw bottle being open, in a water bath (NWB-180N, manufactured by Nissinrika K. K.) for 60 minutes at a maximum until a transparent dispersion state was confirmed at 80° C.

For `CCCCCCCCCCCCCCCC(=O)NCC(=O)N[C@@H](Cc1c[nH]cn1)C(=O)O` [N-palmitoyl-Gly-His] (Palmitoyl-Gly-His-OH), the “hydrogel formation (summary of Examples 1 to 14, in words)” value [1] was “a hydrogel could be obtained” and the “dissolution in water (summary of Examples 1 to 14, in words)” value [2] was “could be easily dissolved in water”.
